The source made the active and inactive calls. The rule behind the calls is not given here. Where a SMILES comes first, the peptide text is derived from it. [ ]: non-standard residue; d: D form. αMeP = C[C@@]1(C(=O)O)CCCN1

The record followed here is ChEMBL document CHEMBL3751843, “Development of glycine-α-methyl-proline-containing tripeptides with neuroprotective properties” (Eur J Med Chem, 2016).

Data set [1] relates to SH-SY5Y. The data set is described as follows: Neuroprotective against IFNgamma/LPS stimulated THP1 condition medium-induced neurotoxicity in human SH-SY5Y cells assessed as increase in cytoplasmic IkappaBalpha level pretreated for 1 hr followed by addition of THP1 conditioned medium by western blot analysis. It is filed as functional, cell-based. Background: Immunoblotting shows a protein as a band on a membrane.

Data set [2] is described as follows: Metabolic stability in human plasma assessed as half life by HPLC analysis. It is filed as ADME, cell-free.
The test system of data set [3] is SH-SY5Y. The data set is described as follows: Neuroprotective against IFNgamma/LPS stimulated THP1 condition medium-induced neurotoxicity in human SH-SY5Y cells assessed as NO production per 10^6 cells at 10 nM for 1 hr followed by addition of THP1 conditioned medium by griess assay (reference value: 3.75 +/- 0.14 micromol/L). The format is functional. (In general: The Griess reaction detects nitrite, a stable product of nitric oxide.)

Data set [4] deals with SH-SY5Y. The experiment in a line: Neuroprotective against IFNgamma/LPS stimulated THP1 condition medium-induced neurotoxicity in human SH-SY5Y cells assessed as NO production per 10^6 cells at 100 nM for 1 hr followed by addition of THP1 conditioned medium by griess assay (reference value: 3.75 +/- 0.14 micromol/L). It is filed as functional.
The subject of data set [5] is SH-SY5Y. The data set is described as follows: Neuroprotective against IFNgamma/LPS stimulated THP1 condition medium-induced neurotoxicity in human SH-SY5Y cells assessed as NO production per 10^6 cells at 1 uM for 1 hr followed by addition of THP1 conditioned medium by griess assay (reference value: 3.75 +/- 0.14 micromol/L). It is filed as functional.
For data set [6], the system named is SH-SY5Y. The experiment in a line: Neuroprotective against IFNgamma/LPS stimulated THP1 condition medium-induced neurotoxicity in human SH-SY5Y cells assessed as NO production per 10^6 cells at 10 uM for 1 hr followed by addition of THP1 conditioned medium by griess assay (reference value: 3.75 +/- 0.14 micromol/L). The format is functional.
The subject of data set [7] is SH-SY5Y. The data set is described as follows: Neuroprotective against IFNgamma/LPS stimulated THP1 condition medium-induced neurotoxicity in human SH-SY5Y cells assessed as NO production per 10^6 cells at 100 uM for 1 hr followed by addition of THP1 conditioned medium by griess assay (reference value: 3.75 +/- 0.14 micromol/L). It is filed as functional.
In data set [8] the test system is SH-SY5Y. The experiment in a line: Cytotoxicity against human SH-SY5Y cells at 0.1 to 100 uM after 24 hrs by MTT assay. The format is cell-based. (Formazan colour is commonly taken as a measure of viable cells.)
Data set [9] concerns SH-SY5Y. The experiment in a line: Neuroprotective activity against human SH-SY5Y cells assessed as inhibition of IFNgamma/LPS stimulated THP1 condition medium-induced cytotoxicity measured as cell viability at 100 uM for 1 hr followed by addition of THP1 conditioned medium for 24 hrs by LDH assay relative to control. The format is functional.
The test system of data set [10] is SH-SY5Y. The data set is described as follows: Neuroprotective against IFNgamma/LPS stimulated THP1 condition medium-induced neurotoxicity in human SH-SY5Y cells assessed as decrease in apoptosis at 100 uM for 1 hr followed by addition of THP1 conditioned medium by annexinV/PI staining based flow cytometry. It is filed as functional, cell-based.
In data set [11] the test system is SH-SY5Y. The data set is described as follows: Neuroprotective against IFNgamma/LPS stimulated THP1 condition medium-induced neurotoxicity in human SH-SY5Y cells assessed as reduced iNOS activity at 100 uM pretreated for 1 hr followed by addition of THP1 conditioned medium. It is filed as functional, cell-based.
In data set [12] the test system is SH-SY5Y. The data set is described as follows: Neuroprotective against IFNgamma/LPS stimulated THP1 condition medium-induced neurotoxicity in human SH-SY5Y cells assessed as decrease in iNOS expression at 100 uM pretreated for 1 hr followed by addition of THP1 conditioned medium by western blot analysis. The format is functional, cell-based.
The test system of data set [13] is SH-SY5Y. The data set is described as follows: Neuroprotective against IFNgamma/LPS stimulated THP1 condition medium-induced neurotoxicity in human SH-SY5Y cells assessed as increase in nNOS expression at 100 uM pretreated for 1 hr followed by addition of THP1 conditioned medium by western blot analysis. It is filed as functional, cell-based.
Data set [14] deals with SH-SY5Y. The experiment in a line: Effect on NO production in human SH-SY5Y cells by greiss assay. It is filed as functional, cell-based.
The subject of data set [15] is SH-SY5Y. The data set is described as follows: Neuroprotective activity against human SH-SY5Y cells assessed as inhibition of IFNgamma/LPS stimulated THP1 condition medium-induced cytotoxicity measured as cell viability at 100 uM for 1 hr followed by addition of THP1 conditioned medium for 24 hrs by LDH assay in presence of 1 uM dexamethasone. It is filed as functional, cell-based.

For data set [16], the system named is SH-SY5Y. The data set is described as follows: Neuroprotective against IFNgamma/LPS stimulated THP1 condition medium-induced neurotoxicity in human SH-SY5Y cells assessed as increase in cytoplasmic IkappaBalpha level at 100 uM pretreated for 1 hr followed by addition of THP1 conditioned medium by western blot analysis. The format is functional, cell-based.

For data set [17], the system named is SH-SY5Y. The data set is described as follows: Neuroprotective against IFNgamma/LPS stimulated THP1 condition medium-induced neurotoxicity in human SH-SY5Y cells assessed as inhibition of RelA/p65 nuclear translocation at 100 uM pretreated for 1 hr followed by addition of THP1 conditioned medium by western blot analysis. It is filed as functional, cell-based.

Data set [18] relates to SH-SY5Y. The data set is described as follows: Neuroprotective against IFNgamma/LPS stimulated THP1 condition medium-induced neurotoxicity in human SH-SY5Y cells assessed as increase in nNOS activity at 100 uM pretreated for 1 hr followed by addition of THP1 conditioned medium. The format is functional, cell-based.

With `CN1C(=O)[C@]23CC4=CC=C[C@H](O)[C@H]4N2C(=O)[C@@]1(CO)SS3`, in the data set with SH-SY5Y [1], the result was Active.
Turning to `N=C(N)NCCC[C@H](NC(=O)[C@@H]1CCCN1C(=O)CN)C(=O)O` (H-Gly-Pro-Arg-OH), the half-life in data set [2] was 1.58 h. Also, the Activity in the data set on SH-SY5Y [3] stood at 3.72 µmol/L; in the data set on SH-SY5Y [4], 3.74 µmol/L; with SH-SY5Y [5], 3.68 µmol/L; in the data set with SH-SY5Y [6], 3.05 µmol/L; in the data set with SH-SY5Y [7] it was 2.64 µmol/L.
Regarding `C[C@@]1(C(=O)N[C@@H](CCCNC(=N)N)C(=O)O)CCCN1C(=O)CN` (H-Gly-[αMeP]-Arg-OH), the half-life in data set [2] is 132 h. The Activity entry with SH-SY5Y [8] is “Non-toxic”; in the data set on SH-SY5Y [9] it was 70%; with SH-SY5Y [3], 3.78 µmol/L; with SH-SY5Y [4] it was 3.71 µmol/L; in the data set with SH-SY5Y [5] it was 3.72 µmol/L; with SH-SY5Y [6], 3.57 µmol/L. For the same compound, in the data set on SH-SY5Y [7], the Activity was 2.92 µmol/L. In addition, the inhibition entry in the data set on SH-SY5Y [10], with SH-SY5Y [11] and in the data set on SH-SY5Y [12] was “Active” each time. Moreover, the outcome in the data set on SH-SY5Y [13] and with SH-SY5Y [15] was Active. Also, the result in the data set with SH-SY5Y [14] was inactive.
For `C[C@@]1(C(=O)N[C@@H](Cc2cnc[nH]2)C(=O)O)CCCN1C(=O)CN` (H-Gly-[αMeP]-His-OH), the half-life in data set [2] is 118 h. The Activity result with SH-SY5Y [8] is “Non-toxic”; in the data set on SH-SY5Y [9], 70%; in the data set on SH-SY5Y [3], 3.81 µmol/L; with SH-SY5Y [4], 3.76 µmol/L; in the data set with SH-SY5Y [5] it was 3.74 µmol/L; in the data set with SH-SY5Y [6], 2.96 µmol/L. Further, in the data set on SH-SY5Y [7], the Activity was determined as 2.38 µmol/L. The inhibition entry with SH-SY5Y [10], in the data set with SH-SY5Y [11], in the data set on SH-SY5Y [12] and in the data set with SH-SY5Y [17] was “Active” each time. Further, the outcome in the data set with SH-SY5Y [13], in the data set with SH-SY5Y [16], in the data set with SH-SY5Y [15] and in the data set with SH-SY5Y [18] was Active. Moreover, the outcome with SH-SY5Y [14] was inactive.
`C[C@@]1(C(=O)N[C@@H](CCCCN)C(=O)O)CCCN1C(=O)CN` (H-Gly-[αMeP]-Lys-OH): the half-life in data set [2] was 51.6 h. The Activity entry with SH-SY5Y [8] was “Non-toxic”; in the data set with SH-SY5Y [9] it was 70%; with SH-SY5Y [3], 3.7 µmol/L; with SH-SY5Y [4], 3.68 µmol/L; in the data set with SH-SY5Y [5], 3.74 µmol/L; in the data set with SH-SY5Y [6] it was 2.98 µmol/L. Besides, the Activity in the data set with SH-SY5Y [7] came out at 2.65 µmol/L. Besides, the inhibition entry in the data set with SH-SY5Y [10], in the data set on SH-SY5Y [11] and with SH-SY5Y [12] was “Active” in each case. Moreover, the outcome with SH-SY5Y [13] and with SH-SY5Y [15] was Active. Further, in the data set with SH-SY5Y [14], the outcome was inactive.

As a reminder, the half-life is how long it takes for the measured level to halve.
